Experimental findings from ChEMBL document CHEMBL1201862, “PubChem BioAssay data set” (2004) are described below.

Each structure is given as a SMILES string.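 Method: 48-hour compound exposure of cells in 96-well plates, five concentrations, linear interpolation of endpoints. Here, GI50 denotes the concentration required for 50% inhibition of growth.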 Calls of active or inactive are those of the source. No stated cut-off is given here; in the data, active = GI50 up to about 1.1 µM and inactive = higher.

The term GI50 denotes the concentration that inhibits growth by half.

Among the test systems are SF-295; SNB-19; M14; MDA-MB-435; OVCAR-8; NCI-H522; BT-549; KM12; OVCAR-4; K562; U-251; MDA-MB-231; PC-3; HOP-92; RPMI-8226; NCI-H460; ACHN; MOLT-4; SF-539.
Common to all, as to experiment: DTP human tumour cell line panel, 48 h

On to `Cc1cccc2cc3ccc4ccccc4c3cc12`, for which the GI50 is 40.8 µM (inactive) in the assay with SF-295; 76.2 µM (inactive) with SNB-19; 48.5 µM (inactive) in the assay with M14; 47.6 µM (inactive) in the assay with MDA-MB-435; > 100 µM (inactive) in the assay on OVCAR-8; 27.9 µM (inactive) with NCI-H522. Besides, the GI50 was > 100 µM (inactive) with BT-549; 37.2 µM (inactive) in the assay with KM12; 47.3 µM (inactive) in the assay with OVCAR-4; 63.1 µM (inactive) with K562; 41.4 µM (inactive) with U-251; 51.3 µM (inactive) in the assay on MDA-MB-231. Moreover, the GI50 in the assay on PC-3 was 66.5 µM (inactive); with HOP-92, 98.9 µM (inactive); in the assay with RPMI-8226, 34.6 µM (inactive); with NCI-H460, 25.4 µM (inactive); in the assay on ACHN, 46.7 µM (inactive); in the assay with MOLT-4 it was 25.7 µM (inactive). Besides, in the assay on SF-539, the GI50 was 74 µM (inactive).

Consider `CC(=O)c1ccc(Nc2c3c(nc4ccccc24)CCCC3)cc1`, for which the GI50 with SF-295 was 11.2 µM (inactive); with SNB-19 it was 20.2 µM (inactive); in the assay with M14, 12.6 µM (inactive); in the assay with MDA-MB-435 it was 1.96 µM (inactive); in the assay on OVCAR-8, 17.7 µM (inactive); in the assay on NCI-H522, 3.85 µM (inactive). In addition, the GI50 in the assay with BT-549 was 9.79 µM (inactive); in the assay with KM12, 7.29 µM (inactive); in the assay with OVCAR-4, 41.9 µM (inactive); with K562, 16.4 µM (inactive); with U-251, 19.1 µM (inactive); in the assay on MDA-MB-231 it was 19.6 µM (inactive). The GI50 is 41.1 µM (inactive) in the assay with PC-3; 21.1 µM (inactive) with HOP-92; 27.6 µM (inactive) in the assay with RPMI-8226; 17.5 µM (inactive) in the assay on NCI-H460; 38.3 µM (inactive) in the assay on ACHN; 9.59 µM (inactive) in the assay with MOLT-4. Further, in the assay on SF-539, the GI50 is 26.6 µM (inactive).

For the compound `O=c1ccc(=O)n(-c2ccccc2)[nH]1`, the GI50 in the assay with SF-295, in the assay on SNB-19, with M14, in the assay with MDA-MB-435, in the assay with OVCAR-8 and with NCI-H522 was > 100 µM (inactive) in each case. For the same compound, the GI50 in the assay with BT-549, in the assay on KM12, in the assay on OVCAR-4, in the assay with K562, in the assay with U-251 and with MDA-MB-231 was > 100 µM (inactive) throughout. For the same compound, the GI50 in the assay with PC-3, in the assay on HOP-92, in the assay with RPMI-8226, in the assay with NCI-H460, in the assay with ACHN and with MOLT-4 was > 100 µM (inactive) each time. The GI50 with SF-539 was > 100 µM (inactive).

For the compound `CC1(C)OC(=C(C#N)C#N)C(C#N)=C1/C=C/c1ccncc1`, the GI50 in the assay with SF-295 is 2.24 µM (inactive); in the assay on SNB-19, 2.59 µM (inactive); in the assay on M14, 2.56 µM (inactive); in the assay with MDA-MB-435 it was 3.45 µM (inactive); in the assay on OVCAR-8, 1.75 µM (inactive); in the assay with NCI-H522, 2.05 µM (inactive). Further, the GI50 with BT-549 was 1.65 µM (inactive); in the assay with KM12 it was 3.8 µM (inactive); in the assay with OVCAR-4, 2.96 µM (inactive); in the assay with K562 it was 3.14 µM (inactive); in the assay on U-251, 1.85 µM (inactive); in the assay with MDA-MB-231, 2.16 µM (inactive). Also, the GI50 in the assay with PC-3 was 2.29 µM (inactive); with HOP-92, 2.42 µM (inactive); in the assay on RPMI-8226 it was 1.65 µM (inactive); in the assay with NCI-H460, 6.53 µM (inactive); in the assay with ACHN, 1.87 µM (inactive); with MOLT-4, 2.03 µM (inactive). Moreover, the GI50 in the assay with SF-539 is 1.8 µM (inactive).

For `O=C1CC(n2cccc2)c2cc(Br)sc21` (centres undefined), the GI50 with SF-295 was > 100 µM (inactive); in the assay with SNB-19 it was > 100 µM (inactive); with M14 it was > 100 µM (inactive); in the assay on MDA-MB-435, 87.5 µM (inactive); with OVCAR-8 it was 36.9 µM (inactive); in the assay on NCI-H522, 21.6 µM (inactive). Moreover, the GI50 in the assay with BT-549, with KM12, in the assay on OVCAR-4, in the assay on K562, in the assay on U-251 and in the assay on MDA-MB-231 was > 100 µM (inactive) in each case. In addition, the GI50 with PC-3 is > 100 µM (inactive); in the assay with HOP-92 it was > 100 µM (inactive); in the assay on RPMI-8226, 26.4 µM (inactive); with NCI-H460, > 100 µM (inactive); with ACHN it was > 100 µM (inactive); in the assay with MOLT-4, 16.1 µM (inactive). The GI50 in the assay on SF-539 was > 100 µM (inactive).

In the case of `Cc1[nH]c(-c2ccccc2)c(O)c1C(=O)OC12CC3CC(CC(C3)C1)C2`, the GI50 in the assay with SF-295 was 2.93 µM (inactive); in the assay with SNB-19, 15 µM (inactive); in the assay on M14, 12.4 µM (inactive); with MDA-MB-435, 15 µM (inactive); with OVCAR-8 it was 12.9 µM (inactive); with NCI-H522, 10.1 µM (inactive). Besides, the GI50 in the assay on BT-549 was 17.1 µM (inactive); in the assay with KM12, 5.01 µM (inactive); in the assay with OVCAR-4 it was 16.3 µM (inactive); with K562, > 100 µM (inactive); in the assay on U-251, 14.9 µM (inactive); with MDA-MB-231, 18.5 µM (inactive). Moreover, the GI50 with PC-3 was 15.5 µM (inactive); in the assay with HOP-92 it was 18.8 µM (inactive); with RPMI-8226, 37 µM (inactive); in the assay on NCI-H460, 7.82 µM (inactive); in the assay on ACHN, 16.1 µM (inactive); with MOLT-4, 12.5 µM (inactive). Moreover, the GI50 in the assay with SF-539 is 11 µM (inactive).

Consider `CCOC(C[Se]CC(OCC)OCC)OCC`, for which the GI50 with SF-295 is 26.1 µM (inactive); with SNB-19 it was 48.8 µM (inactive); with M14, 52.8 µM (inactive); in the assay with MDA-MB-435, 36.4 µM (inactive); with OVCAR-8, 27.2 µM (inactive); in the assay on NCI-H522, > 100 µM (inactive). Moreover, the GI50 is 31.8 µM (inactive) in the assay with BT-549; 53.2 µM (inactive) in the assay on KM12; 45.3 µM (inactive) with OVCAR-4; > 100 µM (inactive) with K562; 14.6 µM (inactive) in the assay with U-251; 52.5 µM (inactive) in the assay on MDA-MB-231. Also, the GI50 was 37.9 µM (inactive) with PC-3; 39.6 µM (inactive) in the assay with HOP-92; > 100 µM (inactive) in the assay on RPMI-8226; 65.9 µM (inactive) in the assay with NCI-H460; > 100 µM (inactive) with ACHN; 37.8 µM (inactive) with MOLT-4. In addition, in the assay on SF-539, the GI50 was 28.7 µM (inactive).

On to `C1=N\CCOCC/N=C/c2ccccc2OCc2cccc(n2)COc2ccccc2/1`, for which the GI50 was 4.02 µM (inactive) in the assay on SF-295; 9.51 µM (inactive) in the assay with SNB-19; 8.87 µM (inactive) in the assay on M14; 0.778 µM (active) with MDA-MB-435; 6.38 µM (inactive) with OVCAR-8; 20.3 µM (inactive) in the assay with NCI-H522. Besides, the GI50 with BT-549 was 6.76 µM (inactive); with KM12 it was 7.85 µM (inactive); in the assay with OVCAR-4, 6.03 µM (inactive); in the assay with K562, 2.38 µM (inactive); in the assay on U-251 it was 6.04 µM (inactive); in the assay with MDA-MB-231, 8.93 µM (inactive). In addition, the GI50 in the assay with PC-3 was 8.93 µM (inactive); in the assay with HOP-92 it was 10.4 µM (inactive); with RPMI-8226 it was 4.88 µM (inactive); with NCI-H460 it was > 25 µM (inactive); in the assay on ACHN it was 9.23 µM (inactive); in the assay on MOLT-4, 4.91 µM (inactive). Also, the GI50 in the assay on SF-539 is 3.2 µM (inactive).

Consider `O=C(c1ccccn1)c1nnn2ccccc12`, for which the GI50 in the assay with SF-295, in the assay on SNB-19, in the assay on M14, in the assay with MDA-MB-435, in the assay with OVCAR-8 and with NCI-H522 was > 100 µM (inactive) in each case. Moreover, the GI50 in the assay with BT-549, in the assay on KM12, in the assay with OVCAR-4, with K562, in the assay on U-251 and in the assay on MDA-MB-231 was > 100 µM (inactive) each time. Moreover, the GI50 with PC-3, with HOP-92, in the assay with RPMI-8226, in the assay on NCI-H460, in the assay on ACHN and in the assay on MOLT-4 was > 100 µM (inactive) each time. Also, the GI50 in the assay with SF-539 is > 100 µM (inactive).

As to `C[S+](C)CC(=O)c1ccc2c(c1)Sc1ccccc1O2`, the GI50 with SF-295 is 5.25 µM (inactive); in the assay on SNB-19, 5.51 µM (inactive); with M14 it was 0.755 µM (active); with MDA-MB-435 it was 0.923 µM (active); in the assay on OVCAR-8 it was 3.39 µM (inactive); in the assay with NCI-H522, 1.09 µM (active). The GI50 with BT-549 is 2.18 µM (inactive); in the assay on KM12 it was 0.955 µM (active); in the assay on OVCAR-4 it was 3.44 µM (inactive); with K562 it was 3.21 µM (inactive); in the assay with U-251, 7.19 µM (inactive); in the assay with MDA-MB-231 it was 7.06 µM (inactive). Also, the GI50 in the assay with PC-3 was 1.04 µM (active); with HOP-92, 3.74 µM (inactive); in the assay on RPMI-8226, 2.59 µM (inactive); in the assay on NCI-H460 it was 5.3 µM (inactive); with ACHN, 5.78 µM (inactive); with MOLT-4, 3.29 µM (inactive). Moreover, in the assay with SF-539, the GI50 is 0.69 µM (active).

Take `COc1cc(C(=O)n2c3ccc(Br)cc3c3nc4ccccc4nc32)cc(OC)c1OC`: the GI50 was 64 µM (inactive) in the assay on SF-295; 51.6 µM (inactive) in the assay with SNB-19; > 100 µM (inactive) in the assay with M14; > 100 µM (inactive) with MDA-MB-435; > 100 µM (inactive) with OVCAR-8; 36.6 µM (inactive) with NCI-H522. Also, the GI50 in the assay on BT-549 was 37.3 µM (inactive); in the assay on KM12, > 100 µM (inactive); in the assay on OVCAR-4, > 100 µM (inactive); in the assay on K562, > 100 µM (inactive); in the assay with U-251, > 100 µM (inactive); with MDA-MB-231, 72.8 µM (inactive). The GI50 with PC-3 is > 100 µM (inactive); in the assay on HOP-92, 54.5 µM (inactive); in the assay on RPMI-8226 it was > 100 µM (inactive); in the assay on NCI-H460, > 100 µM (inactive); in the assay on ACHN it was 37.9 µM (inactive); in the assay on MOLT-4 it was 50.8 µM (inactive). Further, in the assay on SF-539, the GI50 is 23.8 µM (inactive).
